Assay results reported in patent US20260374773A1, “MULTI-CYCLIC IRAK AND FLT3 INHIBITING COMPOUNDS AND USES THEREOF” (CHILDREN'S HOSPITAL MEDICAL CENTER, priority 2022, published 2026).

Biological target: T1, FLT3 D835H (Homo sapiens, UniProt P36888, D835H)
T1 sequence (P36888 27-993 D835H): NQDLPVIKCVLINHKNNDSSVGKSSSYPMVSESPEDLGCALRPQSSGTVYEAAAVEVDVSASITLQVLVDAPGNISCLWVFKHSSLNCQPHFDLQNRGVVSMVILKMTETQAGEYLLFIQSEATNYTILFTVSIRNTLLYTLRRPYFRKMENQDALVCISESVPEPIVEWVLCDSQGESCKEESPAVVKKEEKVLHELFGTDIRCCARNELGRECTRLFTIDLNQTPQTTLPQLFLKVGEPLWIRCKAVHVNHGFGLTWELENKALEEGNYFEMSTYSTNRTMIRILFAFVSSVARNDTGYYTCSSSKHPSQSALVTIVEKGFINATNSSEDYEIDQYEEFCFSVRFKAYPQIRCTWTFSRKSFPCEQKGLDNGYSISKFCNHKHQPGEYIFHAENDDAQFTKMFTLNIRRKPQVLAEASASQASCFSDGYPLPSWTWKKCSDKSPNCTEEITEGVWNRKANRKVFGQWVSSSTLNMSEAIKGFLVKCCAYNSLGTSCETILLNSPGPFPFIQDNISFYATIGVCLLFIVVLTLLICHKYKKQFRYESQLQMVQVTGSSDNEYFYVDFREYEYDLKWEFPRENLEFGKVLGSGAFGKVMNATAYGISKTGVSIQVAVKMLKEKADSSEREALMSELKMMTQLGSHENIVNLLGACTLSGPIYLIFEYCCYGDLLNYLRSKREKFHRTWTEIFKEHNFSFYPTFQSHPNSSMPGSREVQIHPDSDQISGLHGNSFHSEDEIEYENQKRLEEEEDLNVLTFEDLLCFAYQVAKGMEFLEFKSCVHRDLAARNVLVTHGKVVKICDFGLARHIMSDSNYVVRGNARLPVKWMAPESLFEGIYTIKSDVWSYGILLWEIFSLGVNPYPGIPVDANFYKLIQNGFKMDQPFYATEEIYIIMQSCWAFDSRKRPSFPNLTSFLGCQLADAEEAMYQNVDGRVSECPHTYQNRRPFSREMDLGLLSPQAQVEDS
Assay: DiscoverX KINOMEscan active site-directed competition binding, FLT3 D835H
Conditions: Table 12; no ATP
Text: (§1) Kinase binding data were obtained for various exemplary compounds prepared according to Examples 1-8 using the DiscoverX KINOMEscan® active site-directed competition binding site-directed assay protocol described below. […] As a result, the data report thermodynamic interaction affinities (Kd values), rather than IC50 values that are dependent on ATP concentrations. The assay uses a DNA-tagged version of the protein kinase, and an immobilized ligand bound to a solid support. Compounds that directly or indirectly prevent kinase binding to the immobilized ligand reduce the amount of kinase captured on the solid support, which is detected using an ultra-sensitive qPCR method. Affinity constants reported from the assay have been reported to be independent of the immobilized ligand used that is coupled to the solid support (See supplemental information in Fabian, M. A. et. al., (2005) Nat. Biotechnol. 23, 329-336; Wodicka, L. M. et. al., (2010) Chem. Biol. 17, 1241-1249.)
Kinase-tagged T7 phage strains were prepared in an E. coli host derived from the BL21 strain. E. coli were grown to log-phase and infected with T7 phage and incubated with shaking at 32 °C until lysis. The lysates were centrifuged and filtered to remove cell debris. The remaining kinases were produced in HEK-293 cells and subsequently tagged with DNA for qPCR detection. Streptavidin-coated magnetic beads were treated with biotinylated small molecule ligands for 30 minutes at room temperature to generate affinity resins for kinase assays. The liganded beads were blocked with excess biotin and washed with blocking buffer (SeaBlock (Pierce), 1% BSA, 0.05% Tween 20, 1 mM DTT) to remove unbound ligand and to reduce non-specific binding. […] Test compounds were prepared as 111x stocks in 100% DMSO. Kds were determined using an 11-point 3-fold compound dilution series with three DMSO control points. All compounds for Kd measurements are distributed by acoustic transfer (non-contact dispensing) in 100% DMSO. The compounds were then diluted directly into the assays such that the final concentration of DMSO was 0.9%. All reactions were performed in polypropylene 384-well plates. Each was a final volume of 0.02 mL. The assay plates were incubated at room temperature with shaking for 1 hour and the affinity beads were washed with wash buffer (1×PBS, 0.05% Tween 20). The beads were then re-suspended in elution buffer (1×PBS, 0.05% Tween 20, 0.5 μM nonbiotinylated affinity ligand) and incubated at room temperature with shaking for 30 minutes. The kinase concentration in the eluates was measured by qPCR. Binding constants (Kds) were calculated with a standard dose-response curve using the Hill equation. The Hill Slope was set to −1. Curves were fitted using a non-linear least square fit with the Levenberg-Marquardt algorithm.
as §1, with “9-12” for “1-8”
Kinase-tagged T7 phage strains were prepared in an E. coli host derived from the BL21 strain. […]

Row | Compound | Kd [nM]
1 | COc1cn2ncc(-c3nc(N[C@H]4CNCC[C@@H]4F)c(C#N)cc3F)c2nc1C1CC1 [Compound 7, 6-(5-cyclopropyl-6-methoxypyrazolo[1,5-a]pyrimidin-3-yl)-5-fluoro-2-(((3S,4S)-4-fluoropiperidin-3-yl)amino)nicotinonitrile] | 0.18
2 | COc1cn2ncc(-c3nc(N[C@H]4CNCC[C@@H]4F)c(F)cc3F)c2nc1C(C)(C)O [Compound 13, 2-(3-(3,5-difluoro-6-(((3S,4S)-4-fluoropiperidin-3-yl)amino)pyridin-2-yl)-6-methoxypyrazolo[1,5-a]pyrimidin-5-yl)propan-2-ol] | < 0.17
3 | COc1cn2ncc(-c3nc(N[C@H]4CNCC[C@@H]4F)c(C#N)cc3F)c2nc1C(C)(C)O [Compound 10, 5-fluoro-2-(((3S,4S)-4-fluoropiperidin-3-yl)amino)-6-(5-(2-hydroxypropan-2-yl)-6-methoxypyrazolo[1,5-a]pyrimidin-3-yl)nicotinonitrile] | 0.2

Same assay, conditions: Table 18; no ATP

Row | Compound | Kd [nM]
4 | COc1cn2ncc(-c3cncc(N[C@H]4CNCC[C@@H]4F)n3)c2nc1C1CC1 [Compound 12a, 6-(5-cyclopropyl-6-methoxypyrazolo[1,5-a]pyrimidin-3-yl)-N-((3S,4S)-4-fluoropiperidin-3-yl)pyrazin-2-amine] | 0.54
5 | COc1cn2ncc(-c3nc(N[C@@H]4CCCNC4)ncc3F)c2nc1C1CC1 [Compound 14a, (R)-4-(5-cyclopropyl-6-methoxypyrazolo[1,5-a]pyrimidin-3-yl)-5-fluoro-N-(piperidin-3-yl)pyrimidin-2-amine] | 0.2
6 | COc1cn2ncc(-c3nc(N[C@H]4CNCC[C@@H]4F)ncc3F)c2nc1C(C)(C)O [Compound 6a, 2-(3-(5-fluoro-2-(((3S,4S)-4-fluoropiperidin-3-yl)amino)pyrimidin-4-yl)-6-methoxypyrazolo[1,5-a]pyrimidin-5-yl)propan-2-ol] | 0.25
7 | COc1cn2ncc(-c3ccnc(N[C@H]4CNCC[C@@H]4F)n3)c2nc1C1CC1 [Compound 7a, 4-(5-cyclopropyl-6-methoxypyrazolo[1,5-a]pyrimidin-3-yl)-N-((3S,4S)-4-fluoropiperidin-3-yl)pyrimidin-2-amine] | 1.2
8 | COc1cn2ncc(-c3nc(N[C@H]4CNCC[C@@H]4F)ncc3F)c2nc1C1CC1 [Compound 15a, 4-(5-cyclopropyl-6-methoxypyrazolo[1,5-a]pyrimidin-3-yl)-5-fluoro-N-((3S,4S)-4-fluoropiperidin-3-yl)pyrimidin-2-amine] | 0.37
